From ChEMBL document CHEMBL1201862, “PubChem BioAssay data set” (2004)
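How tested: cells in 96-well plates exposed to compound for 48 hours at five concentrations. GI50 = concentration required for 50% inhibition of growth.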 Active and inactive are the calls of the source. Cut-off read from the data, not from the text of the source: active = GI50 up to about 1.1 µM and inactive = higher.

Assays:
Experiment in all cases: inhibition of tumour cell growth, NCI panel, 48 h
SF-268 = tested on: SF-268
CCRF-CEM = tested on: CCRF-CEM
UACC-257 = tested on: UACC-257
IGROV-1 = tested on: IGROV-1
OVCAR-5 = tested on: OVCAR-5
HL-60 = tested on: HL-60
NCI-H226 = tested on: NCI-H226
M14 = tested on: M14
TK-10 = tested on: TK-10
COLO 205 = tested on: COLO 205
EKVX = tested on: EKVX
ACHN = tested on: ACHN
MDA-MB-435 = tested on: MDA-MB-435
BT-549 = tested on: BT-549
SW-620 = tested on: SW-620
SK-MEL-28 = tested on: SK-MEL-28
SK-MEL-5 = tested on: SK-MEL-5
NCI-H522 = tested on: NCI-H522
SN12C = tested on: SN12C
SNB-75 = tested on: SNB-75

Measured: GI50

c1ccc2c(c1)CCN(C1=NCCO1)C2
inactive: SF-268 > 10 µM | CCRF-CEM > 10 µM | UACC-257 > 10 µM | IGROV-1 > 10 µM | OVCAR-5 > 10 µM | HL-60 > 10 µM | NCI-H226 > 10 µM | M14 > 10 µM | TK-10 > 10 µM | COLO 205 > 10 µM | EKVX > 10 µM | ACHN > 10 µM | MDA-MB-435 > 10 µM | BT-549 > 10 µM | SW-620 > 10 µM | SK-MEL-28 > 10 µM | SK-MEL-5 > 10 µM | NCI-H522 > 10 µM | SN12C > 10 µM | SNB-75 > 10 µM

N#CCCN(CCN(C(=O)Nc1ccccc1)c1ccccc1)C(=O)Nc1ccccc1
inactive: SF-268 > 100 µM | CCRF-CEM 17.7 µM | UACC-257 > 100 µM | IGROV-1 76.7 µM | OVCAR-5 > 100 µM | HL-60 13 µM | NCI-H226 79.4 µM | M14 77.6 µM | TK-10 61.8 µM | COLO 205 53.5 µM | EKVX 69.5 µM | ACHN 52.1 µM | MDA-MB-435 63.8 µM | BT-549 42.6 µM | SW-620 > 100 µM | SK-MEL-28 > 91.6 µM | SK-MEL-5 60.7 µM | NCI-H522 > 55.3 µM | SNB-75 > 100 µM

COC(=O)C(Cc1c[nH]c2ccccc12)NC(=O)c1ccc(-c2ccc(Cl)cc2Cl)o1 (stereo not drawn)
inactive: SF-268 > 100 µM | CCRF-CEM 20.6 µM | UACC-257 16.9 µM | IGROV-1 32.6 µM | OVCAR-5 > 100 µM | HL-60 10.5 µM | NCI-H226 91.4 µM | M14 64 µM | TK-10 63.5 µM | COLO 205 43.9 µM | EKVX 27.4 µM | ACHN 38.4 µM | MDA-MB-435 56 µM | BT-549 > 100 µM | SW-620 41.1 µM | SK-MEL-28 65.6 µM | NCI-H522 64.3 µM | SN12C 26.4 µM | SNB-75 35.5 µM

CCN(CC)N1C(=O)[N-][N+](CC)(CC)C1=O
inactive: SF-268 > 100 µM | CCRF-CEM > 100 µM | IGROV-1 > 100 µM | OVCAR-5 > 100 µM | HL-60 > 100 µM | NCI-H226 > 100 µM | M14 > 100 µM | TK-10 > 100 µM | COLO 205 71.1 µM | EKVX > 100 µM | ACHN > 100 µM | MDA-MB-435 > 100 µM | BT-549 > 100 µM | SW-620 > 100 µM | SK-MEL-28 > 100 µM | SK-MEL-5 > 100 µM | NCI-H522 > 100 µM | SN12C > 100 µM | SNB-75 > 100 µM

Oc1c(-c2ccccc2)sc2ccccc12
inactive: SF-268 60.7 µM | CCRF-CEM 29.8 µM | UACC-257 25.2 µM | IGROV-1 27.5 µM | OVCAR-5 27 µM | HL-60 22.6 µM | NCI-H226 16.4 µM | M14 20.2 µM | TK-10 72.6 µM | COLO 205 13 µM | EKVX 24.9 µM | ACHN 24.7 µM | MDA-MB-435 31.6 µM | BT-549 28.1 µM | SW-620 48.3 µM | SK-MEL-28 68.9 µM | SK-MEL-5 16.7 µM | NCI-H522 27.9 µM | SNB-75 12.4 µM

CSC1=NN(c2ccccc2)C(=O)C1=C(SC)SC
inactive: SF-268 26.1 µM | CCRF-CEM 14.2 µM | UACC-257 16 µM | OVCAR-5 31.6 µM | HL-60 15.9 µM | NCI-H226 16.1 µM | M14 37.2 µM | TK-10 19.5 µM | COLO 205 13.2 µM | EKVX 27.7 µM | MDA-MB-435 31.9 µM | BT-549 27.4 µM | SW-620 33.5 µM | SK-MEL-28 30.5 µM | SK-MEL-5 16.3 µM | NCI-H522 2.44 µM | SN12C 28.4 µM | SNB-75 27.4 µM

COC(=O)[C@H](C)N(C)C(=O)[C@H](C)N1[C@@H](c2ccccc2)COC1(C)C
inactive: SF-268 > 100 µM | CCRF-CEM > 100 µM | UACC-257 > 100 µM | IGROV-1 > 100 µM | OVCAR-5 > 100 µM | HL-60 > 100 µM | NCI-H226 > 100 µM | M14 > 100 µM | TK-10 > 100 µM | COLO 205 > 100 µM | EKVX > 100 µM | ACHN > 100 µM | MDA-MB-435 > 100 µM | BT-549 > 100 µM | SW-620 > 100 µM | SK-MEL-28 > 100 µM | SK-MEL-5 > 100 µM | NCI-H522 > 100 µM | SNB-75 92.7 µM
